Experimental data reported in patent publication US20090104145A1, “Mixtures of Anthranilamide Invertebrate Pest Control Agents” (priority 2004, published 2009).

Tested on: corn planthopper (Pereginus maidis)
Experiment: whole plant or invertebrate
Format: in vivo
Conditions: read-out: % mortality (obs)
Protocol: The pest control protection afforded by the mixtures or compositions is not limited, however, to these species. The analysis of synergism or antagonism between the mixtures or compositions was determined using Colby's equation. The average % mortality data for the test compounds alone were inserted into the Colby's equation. If the observed average % mortality was higher than “p”, the expected % mortality, the mixture or composition had synergistic effects. If the observed average % mortality was equal to or lower than the expected mortality, the mixture or composition either had no synergistic effect or an antagonistic effect. In these tests, Compound 1 is the compound of Formula 1.
Test compounds were formulated using a solution containing 10% acetone, 90% water and 300 ppm X-77® Spreader Lo-Foam Formula non-ionic surfactant containing alkylarylpolyoxyethylene, free fatty acids, glycols and isopropanol (Loveland Industries, Inc.) to provide the desired concentration in ppm. Formulated test solutions were then applied in 1 mL volumes through a SUJ2 atomizer nozzle with ⅛ JJ custom body (Spraying Systems Co.) positioned 1.27 cm (0.5 inches) above the top of each test unit.
For evaluating control of corn planthopper (Pereginus maidis) through contact and/or systemic means, each test unit consisted of a small open cylindrical container with a 3- to 4-day-old corn (maize) plant (spike) inside. White sand was added to the top of the soil prior to application. Test compounds were formulated and sprayed with 3 replications as described for Test A. After spraying, the test units were allowed to dry for 1 hour before they were post-infested with 10 to 20 corn planthoppers (18- to 20-day-old nymphs) by sprinkling them onto the sand with a salt shaker. A black, screened cap was placed on the top of each container. The test units were held for 6 days in a growth chamber at 19-21° C. and 50-70% relative humidity.

Which results are given for CNC(=O)c1cc(C#N)cc(C)c1NC(=O)c1cc(Br)nn1-c1ncccc1Cl [Compound 1, 3-bromo-N-[4-cyano-2-methyl-6-[(methylamino)carbonyl]phenyl]-1-(3-chloro-2-pyridinyl)-1H-pyrazole-5-carboxamide]?
mortality at 0.3 ppm (rate 0.3 ppm): 15%; mortality at 3 ppm (rate 3 ppm): 26%; mortality at 30 ppm (rate 30 ppm): 90%
